Patent US7091174B2, “Caloxins” (McMaster University, priority 2000, dated 2006)
Ends that are not written are not given here.

Tests used:
[1] = target: T1, erythrocyte leaky ghost Ca^2+—Mg^2+-ATPase (PM Ca^2+ pump) (Homo sapiens, UniProt P23634); assay: Ca2+-Mg2+-ATPase assay with human erythrocyte leaky ghosts (fluorometric coupled enzyme assay); format: biochemical
T1 construct: Human erythrocyte leaky ghosts (Jarrett et al. (1978)) were assayed for ATPase; from tissue; host or cells: human erythrocyte leaky ghosts prepared from human blood
Experimental: FIG. 1A is a graph showing Ca^2+—Mg^2+-ATPhase inhibition by caloxin 2A1. Human erythrocyte leaky ghosts (Jarrett et al. (1978)) were assayed for ATPase as described previously (Niggli et al. (1981); Grover (1988)) but by fluorometry. The drawn curve is from a total of 32 data points. Error bars where shown are SEM values.
The present invention includes all caloxins isolated according to the method of the invention. Caloxins can be tested for their ability to inhibit the plasma membrane Ca^2+-pump using various assays. In particular, PM Ca^2+ pump is a Ca^2+—Mg^2+-ATPase that binds ATP in presence of Ca^2+ to form an acylphosphate which is then hydrolysed upon Ca^2+ translocation (Guerini (1998)). The effect of caloxins on PM Ca^2+ pump can be tested in two assays using human erythrocyte leaky ghosts: Ca^2+—Mg^2+-ATPase and acylphosphate formation. In particular the inventors have shown that caloxin 2A-1 inhibits erythrocyte leaky ghost Ca^2+—Mg^2+-ATPase (FIG. 1A) producing 50% inhibition at 0.4±0.1 mM. Caloxin 2A-1 inhibits the PM Ca^2+-pump selectively. At a concentration of 0.9 mM, caloxin 2A1 inhibits the erythrocyte ghost Ca^2+—Mg^2+-ATPase by 78±4% but with no effect on Mg^2+-ATPase or Na^+—K^+-ATPase in the ghosts or the Ca^2+—Mg^2+-ATPase in skeletal muscle sarcoplasmic reticulum (FIG. 1B). The inhibition is selective to caloxin 2A1 because 0.9 mM of a peptide with randomized caloxin 2A1 sequence (SWSSFPGSGGVSNPN-amide, SEQ.ID.NO.5) has no effect (FIG. 1B) neither does the large mixture of peptides contained in the casein pancreatic hydrolysate (data not shown). Thus, caloxin 2A1 is selective in that it inhibits the PM Ca^2+-pump and not other ATPases. […] Caloxin 2A1 was selected by binding to a PMCA1 sequence but it inhibits PM Ca^2+-pump in erythrocyte ghosts which express mainly PMCA4. This finding is consistent with the high degree of similarity between sequences of PMCA genes in this domain (Swiss Protein Bank accession numbers P20020, Q01814, Q16720, P23634) although we have not ruled out that caloxin 2A1 has different affinities for each isoform. The second PM Ca^2+-pump assay consisted of Ca^2+-dependent formation of the acid stable 140 kDa acylphosphate intermediate from ^32P-γ-ATP in erythrocyte leaky ghosts.
1.2. Ca^2+—Mg^2+-ATPase assay with human erythrocyte leaky ghosts: A major hurdle was the lack of an appropriate assay. The difficulties were: (a) calmodulin needed for the PM Ca^2+ pump activity binds on the cytosolic surface of the pump protein and caloxins by definition bind on the outside surface, (b) most tissues have very active ecto-Mg^2+-ATPase and an ER Ca^2+—Mg^2+-ATPase—the latter can be inhibited by thapsigargin but the former poses a major problem. Erythrocyte ghosts contain mostly plasma membrane. Finally we used human erythrocyte ghosts which have low ecto-Mg^2+-ATPase. Fluorometric coupled enzyme assays are more sensitive. We purchased microcuvettes (100–150 μl) for our fluorometer (SPEX Fluorolog 112) with a heated chamber (37° C.) and made the appropriate cuvette adapter. We first monitor basal Mg^2+-ATPhase as slope for the disappearance of NADH fluorescence (ex=340, em=440 nm) in a solution containing 0.2–0.4 mg ghost protein, 0.1 mM ouabain, 100 mM NaCl, 20 mM KCl, 6 mM MgCl2, 30 mM imidazole-HCl pH 7.0, 0.5 mM EDTA, 0.6 mM NADH, 1 mM pyruvate enol phosphate, excess pyruvate kinase-[…], 0.5 mM ATP, 0.5 mM EGTA and 4 ug/ml calmodulin. […] Na^+—K^+-ATPase can be monitored without CaCl2 and ouabain.

pig coronary artery = assay: Endothelium dependent relaxation of pig coronary artery pre-contracted with KCl; conditions: pig coronary artery precontracted with KCl, FIG. 3
[2] = target: T2, PM Ca^2+-pump 140 kDa acylphosphate intermediate (Homo sapiens, UniProt P23634); assay: Ca2+-dependent acylphosphate formation from 32P-gamma-ATP in erythrocyte leaky ghosts; format: biochemical; conditions: 3.4 mM peptide, FIG. 1C
T2 construct: from tissue; host or cells: human erythrocyte leaky ghosts
Experimental: FIG. 1C is gel showing acylphosphate formation with 3.4 mM caloxin 2A1 or a random peptide. The acylphosphate reaction was carried out and samples analyzed by acid gel electrophoresis as previously described (Grover et al. (1988); Wuytack et al. (1984)). EGTA=1 mM, and CaCl2=0.05 mM.
(§1) The present invention includes all caloxins isolated according to the method of the invention. Caloxins can be tested for their ability to inhibit the plasma membrane Ca^2+-pump using various assays. In particular, PM Ca^2+ pump is a Ca^2+—Mg^2+-ATPase that binds ATP in presence of Ca^2+ to form an acylphosphate which is then hydrolysed upon Ca^2+ translocation (Guerini (1998)). The effect of caloxins on PM Ca^2+ pump can be tested in two assays using human erythrocyte leaky ghosts: Ca^2+—Mg^2+-ATPase and acylphosphate formation. In particular the inventors have shown that caloxin 2A-1 inhibits erythrocyte leaky ghost Ca^2+—Mg^2+-ATPase (FIG. 1A) producing 50% inhibition at 0.4±0.1 mM. Caloxin 2A-1 inhibits the PM Ca^2+-pump selectively. At a concentration of 0.9 mM, caloxin 2A1 inhibits the erythrocyte ghost Ca^2+—Mg^2+-ATPase by 78±4% but with no effect on Mg^2+-ATPase or Na^+—K^+-ATPase in the ghosts or the Ca^2+—Mg^2+-ATPase in skeletal muscle sarcoplasmic reticulum (FIG. 1B). […]

[3] = tested on: Mg^2+-ATPase in the ghosts; assay: Mg2+-ATPase in erythrocyte ghosts; format: biochemical, human; conditions: 0.9 mM
From the text: (§2) FIG. 1B is a bar graph showing the selectivity of caloxin 2A1 for inhibition of PM Ca^2+—Mg^2+-ATPase using caloxin 2A1 or a random peptide (RP). G=ghosts and S=skeletal muscle sarcoplasmic reticulum, Type of ATPhase activity monitored is shown as Ca^2+—Mg^2+, Mg^2+ or Na^+—K^+-ATPase.
(§3) The present invention includes all caloxins isolated according to the method of the invention. Caloxins can be tested for their ability to inhibit the plasma membrane Ca^2+-pump using various assays. In particular, PM Ca^2+ pump is a Ca^2+—Mg^2+-ATPase that binds ATP in presence of Ca^2+ to form an acylphosphate which is then hydrolysed upon Ca^2+ translocation (Guerini (1998)). The effect of caloxins on PM Ca^2+ pump can be tested in two assays using human erythrocyte leaky ghosts: Ca^2+—Mg^2+-ATPase and acylphosphate formation. […]
(§4) 1.2. […] We first monitor basal Mg^2+-ATPhase as slope for the disappearance of NADH fluorescence (ex=340, em=440 nm) in a solution containing 0.2–0.4 mg ghost protein, 0.1 mM ouabain, 100 mM NaCl, 20 mM KCl, 6 mM MgCl2, 30 mM imidazole-HCl pH 7.0, 0.5 mM EDTA, 0.6 mM NADH, 1 mM pyruvate enol phosphate, excess pyruvate kinase-[…], 0.5 mM ATP, 0.5 mM EGTA and 4 ug/ml calmodulin. […] Na^+—K^+-ATPase can be monitored without CaCl2 and ouabain.

[4] = tested on: Na^+—K^+-ATPase in the ghosts; assay: Na+-K+-ATPase in erythrocyte ghosts; format: biochemical, human; conditions: 0.9 mM
From the text: as §2, §3, §4

[5] = tested on: T3, Ca^2+—Mg^2+-ATPase in skeletal muscle sarcoplasmic reticulum; assay: Ca2+-Mg2+-ATPase in skeletal muscle sarcoplasmic reticulum; format: biochemical; conditions: 0.9 mM
T3 construct: G=ghosts and S=skeletal muscle sarcoplasmic reticulum; from tissue; host or cells: skeletal muscle sarcoplasmic reticulum
From the text: as §2, §1

rat aortic rings = assay: Endothelium dependent relaxation of rat aorta rings precontracted with phenylephrine; conditions: precontracted with 0.5 μM phenylephrine, 0.34 mM caloxin 2A1, reversed by L-NAME
Experimental: Rat aorta rings were hung in organ bath as previously described. The rings were contracted with submaximum (0.5 μM) phenylephrine before adding 0.34 mM caloxin 2A1 and 0.1 mM L-nitroarginylmethyl ester) as shown. Each experiment was replicated at least four times.
Inhibiting the PM Ca^2+ pump in vascular endothelium should increase cytosolic Ca^2+, thereby activating endothelial nitric oxide synthase to relax arteries (Rees et al. (1990); Sato et al. (1990)). […] Thus caloxin 2A1 produced the biological effect in the endothelium which was expected from its inhibiting PM Ca^2+-pump.
1.3. […] We anesthetized a rats by methoxyfluorane (Metofane) inhalation and removed its thoracic aorta as 3 mm rings. These tissues relax to 1 μM carbachol after they have been contracted with phenylephrine (0.5 to 2 μM). We initially tried to do these experiments in Na^+-free solution but the tissues gave very poor contractions to phenylephrine. In Na^+-free solution, the tissues contracted to 20–80 mM KCl but relaxation with carbachol was poor. We reverted to using phenylephrine but in Na^+-containing Krebs' solution.

PMCA4 = target: T4, PMCA4 (Homo sapiens, UniProt P23634); assay: Ca2+-Mg2+-ATPase activity in microsomes of COS-M6 cells transfected with PMCA4; format: biochemical; conditions: read-out: inhibition of PMCA4 Ca^2+—Mg^2+-ATPase
T4 construct: expressed in transfected cells; host or cells: COS-M6 cells, microsomes
T4 sequence (P23634 1-1241): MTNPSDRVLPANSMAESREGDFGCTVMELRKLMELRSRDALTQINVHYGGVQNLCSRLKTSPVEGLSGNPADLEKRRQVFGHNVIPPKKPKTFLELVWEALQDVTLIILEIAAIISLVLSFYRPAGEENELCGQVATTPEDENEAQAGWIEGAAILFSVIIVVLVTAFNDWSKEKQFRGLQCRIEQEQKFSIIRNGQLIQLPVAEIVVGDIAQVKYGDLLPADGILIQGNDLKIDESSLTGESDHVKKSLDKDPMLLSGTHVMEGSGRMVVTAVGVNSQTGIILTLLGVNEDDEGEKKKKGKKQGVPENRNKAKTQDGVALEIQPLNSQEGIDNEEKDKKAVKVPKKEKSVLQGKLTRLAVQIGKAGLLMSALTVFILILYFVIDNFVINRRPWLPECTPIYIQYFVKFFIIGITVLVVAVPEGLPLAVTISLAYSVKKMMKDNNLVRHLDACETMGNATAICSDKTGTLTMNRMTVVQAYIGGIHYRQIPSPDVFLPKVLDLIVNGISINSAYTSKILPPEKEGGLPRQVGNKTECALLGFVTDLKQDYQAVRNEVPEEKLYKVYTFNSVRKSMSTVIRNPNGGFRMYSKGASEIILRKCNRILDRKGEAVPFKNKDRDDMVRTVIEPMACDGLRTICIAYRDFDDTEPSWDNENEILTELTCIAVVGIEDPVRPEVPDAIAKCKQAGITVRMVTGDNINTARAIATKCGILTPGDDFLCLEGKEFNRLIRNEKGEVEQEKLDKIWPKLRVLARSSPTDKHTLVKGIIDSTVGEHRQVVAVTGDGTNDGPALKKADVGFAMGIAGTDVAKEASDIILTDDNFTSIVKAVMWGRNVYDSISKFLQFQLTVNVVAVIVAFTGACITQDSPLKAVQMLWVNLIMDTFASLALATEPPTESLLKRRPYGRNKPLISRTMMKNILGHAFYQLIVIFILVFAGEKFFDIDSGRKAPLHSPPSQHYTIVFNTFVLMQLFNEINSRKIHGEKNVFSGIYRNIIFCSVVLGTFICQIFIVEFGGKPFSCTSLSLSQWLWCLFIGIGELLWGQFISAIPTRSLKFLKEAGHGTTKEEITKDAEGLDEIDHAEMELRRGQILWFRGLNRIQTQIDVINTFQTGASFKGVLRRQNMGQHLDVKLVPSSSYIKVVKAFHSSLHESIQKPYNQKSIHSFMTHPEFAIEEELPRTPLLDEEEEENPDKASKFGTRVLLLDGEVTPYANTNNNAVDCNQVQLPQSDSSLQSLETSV
From the text: (§5) PM Ca^2+-pump isoforms are encoded by 4 different genes. The inventors determined the effects of caloxin 2A1 on different isoforms. Cos M6 cells were transfected with this DNA using Fugene (purchased from Roche). Microsomes from SF9 cells expressing PMCA2 were a gift from Dr. A. Filoteo.
(§6) PMCA4 plasmid was transfected into COS-M6 cells. Thirty six to 48 hr later, microsomes were made from these cells and overexpression of the protein was confirmed using Western Blot. The Ca^2+—Mg^2+-ATPase activity in the microsomes was determined. The assay solutions included the following additional reagents: 0.05% Triton X-100, 5 mM sodium azide and 10 uM cyclopiazonic acid. Results: In a total of 22 determinations, the inhibition produced by 0.46,0.94 and 1.87 mM caloxin 2A1 on PMCA4 was 29, 47 and 58%, respectively.

PMCA2b = assay: Ca2+-Mg2+-ATPase activity in microsomes from SF9 cells expressing PMCA2; format: biochemical; conditions: 1.87 mM; two experiments
From the text: as §5, §6

T2 sequence (P23634 1-1205 isoform P23634-6): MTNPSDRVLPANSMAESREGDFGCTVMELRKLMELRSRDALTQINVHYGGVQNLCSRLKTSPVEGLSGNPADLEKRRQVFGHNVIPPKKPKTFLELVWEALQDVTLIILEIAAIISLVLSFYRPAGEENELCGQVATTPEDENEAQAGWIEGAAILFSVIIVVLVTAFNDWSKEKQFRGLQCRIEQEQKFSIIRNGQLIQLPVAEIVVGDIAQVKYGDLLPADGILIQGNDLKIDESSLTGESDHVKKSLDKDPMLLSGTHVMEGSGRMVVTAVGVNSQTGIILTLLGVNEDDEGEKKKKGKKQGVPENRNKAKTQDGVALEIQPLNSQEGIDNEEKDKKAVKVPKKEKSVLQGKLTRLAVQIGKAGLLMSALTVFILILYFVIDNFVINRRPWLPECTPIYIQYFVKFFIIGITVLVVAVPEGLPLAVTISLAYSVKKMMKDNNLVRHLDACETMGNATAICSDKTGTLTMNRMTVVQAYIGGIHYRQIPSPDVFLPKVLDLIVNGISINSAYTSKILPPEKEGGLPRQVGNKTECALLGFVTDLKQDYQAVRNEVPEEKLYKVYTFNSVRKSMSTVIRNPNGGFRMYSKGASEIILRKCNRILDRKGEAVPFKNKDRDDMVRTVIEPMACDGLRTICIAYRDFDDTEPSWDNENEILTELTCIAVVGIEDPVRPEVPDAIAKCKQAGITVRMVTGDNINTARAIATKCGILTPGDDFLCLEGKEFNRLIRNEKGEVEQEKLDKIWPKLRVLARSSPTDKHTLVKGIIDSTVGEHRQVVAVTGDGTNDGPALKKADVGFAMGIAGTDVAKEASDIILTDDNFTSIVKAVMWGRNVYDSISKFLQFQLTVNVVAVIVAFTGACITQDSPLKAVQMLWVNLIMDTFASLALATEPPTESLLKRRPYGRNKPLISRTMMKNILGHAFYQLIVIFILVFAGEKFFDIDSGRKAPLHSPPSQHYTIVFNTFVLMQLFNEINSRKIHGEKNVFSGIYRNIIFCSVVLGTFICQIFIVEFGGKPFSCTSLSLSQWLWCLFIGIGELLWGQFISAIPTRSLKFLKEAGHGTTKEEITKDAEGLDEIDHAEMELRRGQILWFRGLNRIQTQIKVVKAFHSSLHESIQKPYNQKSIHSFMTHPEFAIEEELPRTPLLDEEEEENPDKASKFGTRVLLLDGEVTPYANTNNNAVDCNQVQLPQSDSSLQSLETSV
T3 sequence (O14983 whole entry): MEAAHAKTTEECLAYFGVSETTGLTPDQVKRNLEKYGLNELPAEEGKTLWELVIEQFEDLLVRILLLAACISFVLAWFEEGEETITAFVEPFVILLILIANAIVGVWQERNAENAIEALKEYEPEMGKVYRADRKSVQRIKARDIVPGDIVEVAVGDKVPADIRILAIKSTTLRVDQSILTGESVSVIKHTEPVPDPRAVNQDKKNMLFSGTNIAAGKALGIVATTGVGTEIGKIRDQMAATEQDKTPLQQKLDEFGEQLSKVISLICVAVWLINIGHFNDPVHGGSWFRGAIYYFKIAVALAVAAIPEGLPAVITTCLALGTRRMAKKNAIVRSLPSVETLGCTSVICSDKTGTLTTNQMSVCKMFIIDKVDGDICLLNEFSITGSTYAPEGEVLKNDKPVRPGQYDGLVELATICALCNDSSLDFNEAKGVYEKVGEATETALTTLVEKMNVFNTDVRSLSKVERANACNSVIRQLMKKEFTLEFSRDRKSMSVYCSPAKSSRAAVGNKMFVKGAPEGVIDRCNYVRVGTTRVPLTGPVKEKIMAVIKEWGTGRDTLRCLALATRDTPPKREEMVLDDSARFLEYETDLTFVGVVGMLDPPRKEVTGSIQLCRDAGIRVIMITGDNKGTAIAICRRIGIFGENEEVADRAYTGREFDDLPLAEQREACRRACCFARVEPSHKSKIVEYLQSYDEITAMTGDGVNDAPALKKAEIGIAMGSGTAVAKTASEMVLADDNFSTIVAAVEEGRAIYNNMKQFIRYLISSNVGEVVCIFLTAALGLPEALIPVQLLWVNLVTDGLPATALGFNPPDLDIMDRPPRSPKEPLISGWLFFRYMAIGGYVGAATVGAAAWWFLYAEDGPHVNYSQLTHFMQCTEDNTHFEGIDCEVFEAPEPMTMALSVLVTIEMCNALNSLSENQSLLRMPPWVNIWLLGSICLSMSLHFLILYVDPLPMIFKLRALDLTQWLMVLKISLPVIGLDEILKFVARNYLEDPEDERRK

Acetyl-DSHINNEPSRRRGGGK (Ac-DSHINNEPSRRRGGGK; listed as Homo sapiens) [caloxin 3A1, peptide isolated by phage display screening against PMCA874]
effect on erythrocyte ghost Ca^2+—Mg^2+-ATPase (in words) ([1]; concentration not given): inhibits | endothelium dependent relaxation of coronary arteries (pig coronary artery): endothelium dependent relaxation | endothelium dependent relaxation of coronary arteries (pig coronary artery; listed as Caloxin 3A1): produces an endothelium dependent relaxation

SWSSFPGSGGVSNPN-amide (SWSSFPGSGGVSNPN-NH2; listed as Homo sapiens) [randomized peptide, reference compound]
effect on erythrocyte ghost Ca^2+—Mg^2+-ATPase (in words) ([1]; 0.9 mM peptide, FIG. 1B): no effect | inhibition of acylphosphate formation [2]: does not

VSNSNWPSFPSSGGG-NH2 [caloxin 2A1, VSNSNWPSFPSSGGG-amide]
inhibition of erythrocyte ghost Ca^2+—Mg^2+-ATPase ([1]; 0.9 mM peptide): 78±4% | effect on erythrocyte ghost Ca^2+—Mg^2+-ATPase (in words) ([1]; 0.9 mM peptide, FIG. 1B): significant (p<0.05) inhibition | IC50 ([1]; human erythrocyte leaky ghosts, read-out: concentration producing 50% inhibition of erythrocyte leaky ghost Ca^2+—Mg^2+-ATPase): 400 ± 100 µM | effect on Mg^2+-ATPase in the ghosts [3]: no effect | effect on Na^+—K^+-ATPase in the ghosts [4]: no effect | effect on Ca^2+—Mg^2+-ATPase in skeletal muscle sarcoplasmic reticulum [5]: no effect | inhibition of acylphosphate formation [2]: inhibits the acylphosphate formation | relaxation of rat aortic rings (rat aortic rings): produced a relaxation | relaxation of rat aortic rings (rat aortic rings; listed as Caloxin 2A1): relaxed the aortic rings | inhibition at 460 µM (PMCA4; 0.46 mM): 29% | inhibition at 940 µM (PMCA4; 0.94 mM): 47% | inhibition at 1870 µM (PMCA4; 1.87 mM): 58% | average inhibition of PMCA2b (PMCA2b): 46%
